Molecular target: T1, TRPV4 channel receptors (Bos taurus, UniProt A0A8F4X677)
T1 construct: obtained using this method in bovine articular chondrocytes; endogenous in cells; host or cells: bovine articular chondrocytes
Assay: Ca2+ influx in bovine articular chondrocytes (Fura-2 fluorescence, FlexStation)
Type: cell-based
Excerpt: Ca^2+ influx mediated through TRPV4 channel receptors can be measured using articular chondrocytes from such species as, but not limited to, human, rat, canine, rabbit, monkey, and bovine, using standard techniques in the art such as, but not limited to, Fura-2 (Invitrogen/Molecular Probes, Eugene, Oreg.) fluorescence using a FlexStation (manufactured by Molecular Devices, Sunnyvale, Calif.). Table 1 lists biological data for several representative compounds obtained using this method in bovine articular chondrocytes.

T1 sequence (A0A8F4X677 1-871): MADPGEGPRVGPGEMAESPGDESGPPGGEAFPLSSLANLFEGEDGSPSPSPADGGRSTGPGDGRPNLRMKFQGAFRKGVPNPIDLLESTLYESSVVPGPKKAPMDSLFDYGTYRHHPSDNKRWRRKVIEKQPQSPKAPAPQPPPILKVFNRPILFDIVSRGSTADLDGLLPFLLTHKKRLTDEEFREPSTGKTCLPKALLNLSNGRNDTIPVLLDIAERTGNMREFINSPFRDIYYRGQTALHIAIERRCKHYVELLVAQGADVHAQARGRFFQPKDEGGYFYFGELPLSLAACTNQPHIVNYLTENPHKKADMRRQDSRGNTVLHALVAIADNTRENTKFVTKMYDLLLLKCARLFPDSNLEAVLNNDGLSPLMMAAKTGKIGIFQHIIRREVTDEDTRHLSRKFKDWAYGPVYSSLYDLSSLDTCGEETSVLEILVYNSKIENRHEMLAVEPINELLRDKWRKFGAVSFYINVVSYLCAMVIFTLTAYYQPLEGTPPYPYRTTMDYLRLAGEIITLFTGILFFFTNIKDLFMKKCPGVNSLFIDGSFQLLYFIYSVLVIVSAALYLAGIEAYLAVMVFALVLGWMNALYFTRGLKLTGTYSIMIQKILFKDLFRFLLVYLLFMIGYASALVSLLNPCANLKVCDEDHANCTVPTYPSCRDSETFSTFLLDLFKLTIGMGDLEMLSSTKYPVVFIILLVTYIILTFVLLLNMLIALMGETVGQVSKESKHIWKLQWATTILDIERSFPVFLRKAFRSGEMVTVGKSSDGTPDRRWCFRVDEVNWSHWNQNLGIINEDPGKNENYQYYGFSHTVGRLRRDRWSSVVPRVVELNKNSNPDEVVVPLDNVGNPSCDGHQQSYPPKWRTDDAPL

Row | SMILES | EC50 [nM]
1 | CC(C)C[C@H](NC(=O)c1cc2ccccc2s1)C(=O)NCCC1CCCCN1S(=O)(=O)c1ccc(Cl)cc1Cl (stereo partly drawn) [Example 3, N-((1S)-1-{[(2-{1-[(2,4-Dichlorophenyl)sulfonyl]-2-piperidinyl}ethyl)amino]carbonyl}-3-methylbutyl)-1-benzothiophene-2-carboxamide] | 10 to 100
2 | CC(C)C[C@H](NC(=O)c1cc2ccccc2s1)C(=O)NCC1CCCCN1S(=O)(=O)c1ccccc1C#N (stereo partly drawn) [Example 1, N-((1S)-1-{[({1-[(2-cyanophenyl)sulfonyl]-2-piperidinyl}methyl)amino]carbonyl}-3-methylbutyl)-1-benzothiophene-2-carboxamide] | 110 to 2000

Reference: patent US20100227856A1, “NOVEL COMPOUNDS” (SMITHKLINE BEECHAM CORPORATION, priority 2006, published 2010)
